Results on one compound are retold here after US20070015771A1, “Lonidamine analogs” (Threshold pharmaceuticals, Inc., priority 2004, published 2007).

Structures are written as SMILES. pIC50: −log10 of the molar value.

The subject of one assay is LNCaP cells. In words: Antiproliferation assay (Alamar Blue), LNCaP cells. The assay is classed as cell-based, human. Particulars: 3 day treatment, read-out: GI50 LNCaP cell 3days. How it is done:
To determine the effect of lonidamine and analogs thereof on cell proliferation, the antiproliferative activity of these compounds was tested in a multi-well Alamar Blue based assay (at 2 h and 3 days). Cell growth in the presence and absence of the test compound (compounds 1-22) was compared, as measured by a fluorescence plate reader at excitation 550 nm and emission 590 nm (see Biosource International Inc., Tech Application Notes, Use of Alamar Blue in the measurement of Cell Viability and Toxicity, Determining IC50). H460 cells (ATCC HTB-177 ([…]), 4,000 cells/well/200 μl) and LNCap cells (ATCC CRL-1740, 6,000 cells/well/200 μl) were seeded in a 96 well plate in RPMI medium (Invitrogen Corporation, Carlsbad, Calif.). After 24 hours, these plates were divided into 3 groups—Control group, 2 h treatment group and 3 day treatment group. In the 2 h treatment group, after 2 h the cells were rinsed to remove the test compound and incubated for 3 days, followed by staining with AlamarBlue. The cells in the 3 day treatment group were incubated for 3 days, followed by staining with AlamarBlue. In the Control group, AlamarBlue was added to the plate at (i) day 0 and (ii) day 3 and measured to establish the control reading.
On the technique in general: Resazurin is reduced to fluorescent resorufin, in cell work by metabolically active cells.

For another assay, the system named is BPH-1. Put plainly: Antiproliferation assay 3 days, BPH-1 cells. It counts as cell-based. The following applies: 3 day treatment; read-out: BPH-1 cell line IC50. How it is done:
To determine the effect of lonidamine analogs thereof on cell proliferation, the antiproliferative activity of these compounds was tested in a multi-well Alamar Blue based assay (at 3 days). Cell growth in the presence and absence of the test compound was compared, as measured by a fluoresence plate reader at excitation 550 nm and emission 590 nm (see Biosource International Inc., Tech Application Notes, Use of Alamar Blue in the measurement of Cell Viability and Toxity, Determining IC50). The following cell lines were tested: PWR-1E cells ((ATCC CRL-11611), 3500 cells/well/200 μl in Keratinocyte SFM medium (Gibco Products, Invitrogen Corporation, Carlsbad, Calif.)); DU-145 cells ((ATCC HTB-81), 4000 cells/well/200 μl in MEM Eagles medium (ATCC, Manassas, Va.)); PC3 cells ((ATCC CRL-1435), 4000 cells/200 μl in Modified HAM's F12 medium (ATCC, Manassas, Va.)); PNt2 cells ((Sigma-Aldrich, 95012613-1 VL), 4000 cells/well/200 μl in RPMI medium (Gibco Products, Invitrogen Corporation, Carlsbad, Calif.), BPH-1 ((DSMZ ACC-143), 4000 cells/well/200 μl in RPMI medium (Gibco Products, Invitrogen Corporation, Carlsbad, Calif), and NCI-H460 cells ((ATCC HTB-177), 4000 cells/well/200 μl in RPMI medium (Gibco Products, Invitrogen Corporation, Carlsbad, Calif.)). The cells were seeded in a 96 well plate in a medium specified above. After 24 hours, these plates were divided into 2 groups—Control group and 3 day treatment group. A test compound was added to each plate in the treatment groups at concentrations of […] as tabulated in Table 1 (in 2 μl 1 of 100% DMSO, final DMSO concentration 1% in all wells). For NCI-H460 cells, test compounds were added to each plate in the treatment groups at concentrations of 600, 300, 100, 30, 10, 3, and 1 μM (in 2 μl of 100% DMSO, final DMSO concentration 1% in all wells). The cells in the 3 day treatment group were incubated for 3 days, followed by staining with AlamarBlue. In the Control group, AlamarBlue was added to the plate at (i) day 0 and (ii) day 3 and measured to establish the control reading. […] For the NCI-H460 cells, the capacity of the cells to proliferate was measured 5 hours after addition of AlamarBlue using the same fluorescence plate reader as stated above.

The next assay concerns PWR-1E cells. In words: BrdU-TUNEL apoptosis assay. It counts as cell-based. The following applies: for % Non-apoptotic cells / % apoptotic cells: PWR-1E cells, 24 h. As for the experimental part:
The effect of compound 1 (as described in Example 1 above) on apoptosis was determined as follows. PWR-1E cells (2×10^5 cells/ml/well) were seeded in a 24 well plate. The culture media were removed after 24 h, the cells were rinsed with PBS buffer (200 μL) and incubated (5 min, 37° C.) with a solution of Guava Viacount CDR in PBS (1:3 v/v). Media (750 μL) containing at least 5% FBS was added to each well, the cells released by repeated pipeting, centrifuged, and the supernatant aspirated. The cells were resuspended in PBS buffer (150 μL) and fixed by incubating (60 min, 4° C.) with 4% paraformaldehyde in PBS. The cells were centrifuged, and the supernatant removed to a final volume of 15 μL. The cell pellets were resuspended, followed by dropwise addition of 200 μl of ice-cold ethanol (70%), and the cells incubated at −20° C. at least for 2 hr. The cells were centrifuged, the supernatant removed, washed, and incubated with the DNA labeling mix (37° C., 60 min). The cells were washed, incubated (30 min) with anti-BrdU staining mix, washed again and analyzed on a Guava PCA-96 system (Guava Technologies, 25801 Industrial Boulevard, Hayward Calif. 94545-2991, USA).

The subject of the next assay is left and right testis. In words: Mouse study, 10 days oral, testis weight. The assay is classed as in vivo. Particulars: C57B1/6J mice, oral daily for 10 days, 0.2-20 mg/kg. As for the experimental part:
The control mice received an equal amount of the vehicle (carboxymethylcellulose). […] Relative weights of entire prostate and individual lobes were calculated by dividing the corresponding absolute weight by the total weight of the mouse. Relative weights of the entire prostate, the dorsal prostate, and the ventral prostate were calculated by dividing the absolute weight by the total weight of the mouse. Relative weights of the left and right testis were calculated by dividing the corresponding absolute weights by the total weights of the mouse.

In the next assay the test system is mouse prostate cells. Put plainly: In vivo viability and proliferation of mouse prostate cells (TUNEL, PCNA). Particulars: mice treated with 20 mg/kg, with respect to vehicle. As for the experimental part: Prostate cells harvested from mice treated with 20 mg/kg of Compound I were assayed by the TUNEL assay (e.g., see Example 48).

Turning to `O=C(NO)c1nn(Cc2ccc(Cl)cc2Cl)c2ccccc12` [Compound 1], in the assay on LNCaP cells, the concentration for 50% growth inhibition (GI50) (commonly the concentration giving 50% growth inhibition) was found to be 40 µM. Also, the pIC50 (as a rule, the IC50 on a negative log10 scale, so that one unit is a factor of ten) in the assay with BPH-1 was 4.76. Further, the “apoptosis in PWR1E cells” value with PWR-1E cells (PWR1E cells) was “induces apoptosis”. Moreover, in the assay on PWR-1E cells (3.1 μM), the “% Non-apoptotic cells” value came to 90% and the “% apoptotic cells” value was found to be 10%. In the assay with PWR-1E cells (6.2 μM), the “% Non-apoptotic cells” value is recorded as 88% and the “% apoptotic cells” value worked out at 12%. In the assay on PWR-1E cells (12.5 μM), the “% Non-apoptotic cells” value was 78% and the “% apoptotic cells” value amounted to 22%. In the assay on PWR-1E cells (25 μM), the “% Non-apoptotic cells” value amounted to 48% and the “% apoptotic cells” value is listed as 52%. In the assay on left and right testis, the “absolute left testis weight (FIG. 13)” value is reported as “dose dependent reduction”, the “absolute right testis weight (FIG. 12)” value is reported as “dose dependent reduction”, the “relative left testis weight (FIG. 5)” value is “dose dependent reduction” and the “relative right testis weight (FIG. 4)” value is “dose dependent reduction”. In the assay on mouse prostate cells, the “apoptosis of prostate cells (TUNEL assay)” value was “more apoptotic” and the “cell cycle inhibition (PCNA assay)” value is “greater cell cycle inhibition”.
